# Laboratory results taken from US20260308186A1, “STAT DEGRADERS AND USES THEREOF” (Recludix Pharma, Inc., priority 2023, published 2026).
# Target: T1, STAT3 (Homo sapiens, UniProt P40763)
# T1 construct: Recombinant STAT3 protein (STAT3(G127-1722))
# Test: STAT3 Fluorescence Polarization (FP) Assay
# Format: binding
# Settings: recombinant STAT3 25 nM; probe 5-FAM-GpYLPQTV-NH2 2 nM; 45 min, room temperature; read-out: STAT3 FP IC50
# Experimental: STAT3 Fluorescence Polarization (FP) Assay
# An FP assay was developed to determine IC50 values for test substances. Recombinant STAT3 protein (STAT3(G127-1722)) at 25 nM was combined with a fluorescently labeled, phosphotyrosine peptide probe (5-FAM-GpYLPQTV-NH2) at 2 nM in FP buffer (10 mM HEPES pH 7.4, 50 mM NaCl, 1 mM EDTA, 0.05% Tween 20.2 mM DTT). 50 μL of STAT3-probe mixture was added to serial diluted compounds in black, 96-well plates (Greiner BioOne 655076) to a final concentration of 1% DMSO. Reaction components were mixed, and FP was measured after 45-minute incubation at room temperature using a Tecan Spark multimode plate reader. FP signal (mP) was plotted against the log concentration of the test substances and IC50 values were calculated by nonlinear regression analysis using GraphPad Prism software. For STAT3 FP assay. A=≤100 nM; B=>100-1000 nM; C=>1-10 μM; and D=>10 μM.
# T1 sequence (P40763 127-722 limits assumed): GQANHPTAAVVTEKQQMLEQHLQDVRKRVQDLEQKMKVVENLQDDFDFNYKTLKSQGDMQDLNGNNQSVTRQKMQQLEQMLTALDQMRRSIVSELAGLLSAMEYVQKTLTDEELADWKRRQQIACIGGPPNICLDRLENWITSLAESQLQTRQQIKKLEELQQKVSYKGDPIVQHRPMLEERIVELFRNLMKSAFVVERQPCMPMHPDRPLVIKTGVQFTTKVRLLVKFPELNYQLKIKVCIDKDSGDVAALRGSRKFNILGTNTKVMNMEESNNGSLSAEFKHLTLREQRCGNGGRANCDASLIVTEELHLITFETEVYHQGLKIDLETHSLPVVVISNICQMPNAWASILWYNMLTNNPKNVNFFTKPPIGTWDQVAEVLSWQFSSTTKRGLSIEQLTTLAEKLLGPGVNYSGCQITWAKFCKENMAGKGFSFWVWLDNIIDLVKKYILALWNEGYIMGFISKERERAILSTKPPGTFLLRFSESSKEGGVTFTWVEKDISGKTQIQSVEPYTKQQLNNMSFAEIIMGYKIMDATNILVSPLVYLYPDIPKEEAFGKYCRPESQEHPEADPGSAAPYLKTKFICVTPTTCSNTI
row,SMILES,IC50
1,"CC(=O)N[C@H](C(=O)N1C[C@H](O)C[C@H]1C(=O)NCc1ccc(-c2scnc2C)cc1OCCCCN(C)C(=O)[C@@H]1CC[C@@H]2CCN(C(=O)c3noc4ccc(C)cc34)C[C@H](NC(=O)c3ccc4ccc(C(F)(F)P(=O)(O)O)cc4c3)C(=O)N21)C(C)(C)C [Compound 31, ((7-(((5S,8S,10aR)-8-((4-(2-(((2S,4R)-1-((S)-2-acetamido-3,3-dimethylbutanoyl)-4-hydroxypyrrolidine-2-carboxamido)methyl)-5-(4-methylthiazol-5-yl)phenoxy)butyl)(methyl)carbamoyl)-3-(5-methylbenzo[d]isoxazole-3-carbonyl)-6-oxodecahydropyrrolo[1,2-a][1,5]diazocin-5-yl)carbamoyl)naphthalen-2-yl)difluoromethyl)phosphonic acid]",1 to 10 µM

# Target: T2, pSTAT6 (Homo sapiens, UniProt P42226)
# T2 construct: pY641-STAT6 MSD read-out
# T2 sequence (P42226 1-847): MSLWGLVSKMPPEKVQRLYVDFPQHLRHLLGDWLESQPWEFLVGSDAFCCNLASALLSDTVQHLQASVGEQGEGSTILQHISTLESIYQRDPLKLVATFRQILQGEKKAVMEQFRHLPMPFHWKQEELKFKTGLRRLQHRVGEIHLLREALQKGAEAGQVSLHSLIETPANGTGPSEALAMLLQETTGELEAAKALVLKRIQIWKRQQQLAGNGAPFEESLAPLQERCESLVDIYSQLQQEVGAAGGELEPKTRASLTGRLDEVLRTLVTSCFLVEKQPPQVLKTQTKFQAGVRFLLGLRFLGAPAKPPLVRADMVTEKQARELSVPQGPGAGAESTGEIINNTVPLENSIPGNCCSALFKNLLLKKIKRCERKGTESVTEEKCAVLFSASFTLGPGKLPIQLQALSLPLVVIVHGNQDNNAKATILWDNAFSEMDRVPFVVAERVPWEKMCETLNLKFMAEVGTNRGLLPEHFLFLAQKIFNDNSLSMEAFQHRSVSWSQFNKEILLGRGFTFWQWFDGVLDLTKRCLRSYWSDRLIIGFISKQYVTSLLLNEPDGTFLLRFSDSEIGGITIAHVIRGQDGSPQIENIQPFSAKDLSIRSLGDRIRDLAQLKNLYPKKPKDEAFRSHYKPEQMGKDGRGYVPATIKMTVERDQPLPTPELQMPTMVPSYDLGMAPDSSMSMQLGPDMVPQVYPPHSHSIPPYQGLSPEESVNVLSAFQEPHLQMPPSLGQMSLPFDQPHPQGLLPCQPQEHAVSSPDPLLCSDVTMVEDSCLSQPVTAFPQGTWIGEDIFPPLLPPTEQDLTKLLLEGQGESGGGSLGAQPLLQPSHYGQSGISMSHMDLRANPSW
# Test: MSD-pSTAT-PBMC Assay, pSTAT6 (IL-4 stimulated PBMC)
# Format: cell-based
# Settings: compound 3 hrs, then 1 ng/mL IL-4 for 10 min, pY641-STAT6, read-out: pSTAT6 IC50
# Description: Cryopreserved Peripheral Blood Mononuclear Cells (PBMC) are from AllCells. Recombinant Human IL-4 and IL-6 are from Peprotech. Mouse monoclonal anti-STAT3 antibody, rabbit monoclonal anti-pY705-STAT3 antibody, rabbit monoclonal Anti-pY641-STAT6 antibody, and lysis buffer are from Cell Signaling Technology (CST). Mouse monoclonal anti-STAT6 antibody is from BioLegend. Assay plates, blocker, and anti-rabbit secondary antibody are from Meso Scale Discovery (MSD).
# Cryopreserved PBMCs were thawed out and allowed to recover overnight in IMDM+10% heat-inactivated FBS prior to plating 50,000 (STAT3) or 25,000 (STAT6) cells per well in 96-well U-bottom tissue culture plates. Cells were treated with compound for 3 hrs. then stimulated with 10 ng/mL IL-6 (STAT3) or 1 ng/mL IL-4 (STAT6) for 10 min. Cells were then spun down and washed with ice-cold PBS prior to lysing the cell pellet with 1× lysis buffer (CST) with 1×HALT protease and phosphatase inhibitor cocktail (Thermo). Lysates were transferred to and incubated overnight at 4° C. with shaking in QuickPlex 96-well high bind assay plates (MSD) pre-coated overnight with 30 μL per well of 0.6 μg/mL mouse monoclonal anti-STAT3 antibody (STAT3) or 2 μg/mL mouse monoclonal anti-STAT6 antibody (STAT6) in 1×PBS, and pre-blocked for 1 hour with 3% Blocker-A (MSD). Captured protein in the assay plates were then washed and probed with 25 μL per well of 0.25 μg/ml rabbit monoclonal anti-pY705-STAT3 antibody (STAT3) or 0.18 μg/ml rabbit monoclonal Anti-pY641-STAT6 antibody (STAT6) in 1% Blocker-A for 1 hour at room temperature with shaking, then washed and probed with 25 ul per well of 1 ug/ml Sulfo-TAG Labeled Goat Anti-Rabbit Antibody (MSD) in 1% Blocker-A for 1 hour at room temperature with shaking. Assay plates were then washed and 150 μL of 1× Read Buffer-T (MSD) was added to each well prior to reading on an SQ120 MSD Plate Reader. Assay signal from each sample was subtracted by the signal from unstimulated control wells and normalized to DMSO control wells. IC50 values were calculated using Graph Pad Prism Dose-Response Nonlinear Regression with variable slope. For both pSTAT3 and pSTAT6 A=≤100 nM; B=>100-1000 nM; C=>1000-3000 nM; and D=>3 μM.
row,SMILES,IC50
1,"Cc1ccc2onc(C(=O)N3CC[C@H]4CC[C@@H](C(=O)N(C)CCCCCCC#Cc5cccc6c5CN(C5CCC(=O)NC5=O)C6=O)N4C(=O)[C@@H](NC(=O)c4ccc5ccc(C(F)(F)P(=O)(O)OCCSC(=O)C(C)(C)C)cc5c4)C3)c2c1 (stereo partly drawn) [Compound 17, S-(2-((((7-(((5S,8S,10aR)-8-((8-(2-(2,6-dioxopiperidin-3-yl)-1-oxoisoindolin-4-yl)oct-7-yn-1-yl)(methyl)carbamoyl)-3-(5-methylbenzo[d]isoxazole-3-carbonyl)-6-oxodecahydropyrrolo[1,2-a][1,5]diazocin-5-yl)carbamoyl)naphthalen-2-yl)difluoromethyl)(hydroxy)phosphoryl)oxy)ethyl) 2,2-dimethylpropanethioate]",> 3 µM
2,"Cc1ccc2onc(C(=O)N3CC[C@H]4CC[C@@H](C(=O)N(C)CCCCCCC#Cc5cccc6c5CN(C5CCC(=O)NC5=O)C6=O)N4C(=O)[C@@H](NC(=O)c4ccc5ccc(C(F)(F)P(=O)(OCCSC(=O)C(C)(C)C)OCCSC(=O)C(C)(C)C)cc5c4)C3)c2c1 (stereo partly drawn) [Compound 18, S,S′-(((((7-(((5S,8S,10aR)-8-((8-(2-(2,6-dioxopiperidin-3-yl)-1-oxoisoindolin-4-yl)oct-7-yn-1-yl)(methyl)carbamoyl)-3-(5-methylbenzo[d]isoxazole-3-carbonyl)-6-oxodecahydropyrrolo[1,2-a][1,5]diazocin-5-yl)carbamoyl)naphthalen-2-yl)difluoromethyl)phosphoryl)bis(oxy))bis(ethane-2,1-diyl)) bis(2,2-dimethylpropanethioate)]",< 0.1 µM
3,"Cc1ccc2onc(C(=O)N3CC[C@H]4CC[C@@H](C(=O)N(C)CCCCCCC#Cc5cccc6c5CN(C5CCC(=O)NC5=O)C6=O)N4C(=O)[C@@H](NC(=O)c4ccc5ccc(C(F)(F)P(=O)(OCOC(=O)OC(C)C)OCOC(=O)OC(C)C)cc5c4)C3)c2c1 (stereo partly drawn) [Compound 19, ((((7-(((5S,8S,10aR)-8-((8-(2-(2,6-dioxopiperidin-3-yl)-1-oxoisoindolin-4-yl)oct-7-yn-1-yl)(methyl)carbamoyl)-3-(5-methylbenzo[d]isoxazole-3-carbonyl)-6-oxodecahydropyrrolo[1,2-a][1,5]diazocin-5-yl)carbamoyl)naphthalen-2-yl)difluoromethyl)phosphoryl)bis(oxy))bis(methylene) diisopropyl bis(carbonate)]",< 0.1 µM
4,"Cc1ccc2onc(C(=O)N3CC[C@H]4CC[C@@H](C(=O)N(C)CCCCCCC#Cc5cccc6c5CN(C5CCC(=O)NC5=O)C6=O)N4C(=O)[C@@H](NC(=O)c4ccc5ccc(C(F)(F)P(=O)(O)OCOC(=O)OC(C)C)cc5c4)C3)c2c1 (stereo partly drawn) [Compound 20, ((((7-(((5S,8S,10aR)-8-((8-(2-(2,6-dioxopiperidin-3-yl)-1-oxoisoindolin-4-yl)oct-7-yn-1-yl)(methyl)carbamoyl)-3-(5-methylbenzo[d]isoxazole-3-carbonyl)-6-oxodecahydropyrrolo[1,2-a][1,5]diazocin-5-yl)carbamoyl)naphthalen-2-yl)difluoromethyl)(hydroxy)phosphoryl)oxy)methyl isopropyl carbonate]",1 to 3 µM
5,"Cc1ccc2onc(C(=O)N3CC[C@H]4CC[C@@H](C(=O)N(C)CCCCCCC#Cc5cccc6c5CN(C5CCC(=O)NC5=O)C6=O)N4C(=O)[C@@H](NC(=O)c4ccc5ccc(C(F)(F)P(=O)(O)OCCSC(=O)CC(C)C)cc5c4)C3)c2c1 (stereo partly drawn) [Compound 23, S-(2-((((7-(((5S,8S,10aR)-8-((8-(2-(2,6-dioxopiperidin-3-yl)-1-oxoisoindolin-4-yl)oct-7-yn-1-yl)(methyl)carbamoyl)-3-(5-methylbenzo[d]isoxazole-3-carbonyl)-6-oxodecahydropyrrolo[1,2-a][1,5]diazocin-5-yl)carbamoyl)naphthalen-2-yl)difluoromethyl)(hydroxy)phosphoryl)oxy)ethyl) 3-methylbutanethioate]",> 3 µM
6,"CC(=O)N[C@H](C(=O)N1C[C@H](O)C[C@H]1C(=O)NCc1ccc(-c2scnc2C)cc1OCCCCN(C)C(=O)[C@@H]1CC[C@@H]2CCN(C(=O)c3noc4ccc(C)cc34)C[C@H](NC(=O)c3ccc4ccc(C(F)(F)P(=O)(O)O)cc4c3)C(=O)N21)C(C)(C)C [Compound 31, ((7-(((5S,8S,10aR)-8-((4-(2-(((2S,4R)-1-((S)-2-acetamido-3,3-dimethylbutanoyl)-4-hydroxypyrrolidine-2-carboxamido)methyl)-5-(4-methylthiazol-5-yl)phenoxy)butyl)(methyl)carbamoyl)-3-(5-methylbenzo[d]isoxazole-3-carbonyl)-6-oxodecahydropyrrolo[1,2-a][1,5]diazocin-5-yl)carbamoyl)naphthalen-2-yl)difluoromethyl)phosphonic acid]",> 3 µM

# Same assay, conditions: read-out: pSTAT6 IC50, compound 3 hrs, then 1 ng/mL IL-4 for 10 min, pY641-STAT6
row,SMILES,IC50
1,"CCCOC(=O)[C@H](C)NP(=O)(Cc1ccc2ccc(C(=O)N[C@H]3CN(C(=O)c4n[nH]c5ccc(C)cc45)CC[C@H]4CC[C@@H](C(=O)N(C)CCCCCCC#Cc5cccc6c5CN(C5CCC(=O)NC5=O)C6=O)N4C3=O)cc2c1)Oc1ccccc1 (stereo partly drawn) [Compound 16, propyl (((7-(((5S,8S,10aR)-8-((8-(2-(2,6-dioxopiperidin-3-yl)-1-oxoisoindolin-4-yl)oct-7-yn-1-yl)(methyl)carbamoyl)-3-(5-methyl-1H-indazole-3-carbonyl)-6-oxodecahydropyrrolo[1,2-a][1,5]diazocin-5-yl)carbamoyl)naphthalen-2-yl)methyl)(phenoxy)phosphoryl)-L-alaninate]",> 3 µM
2,"CCCOC(=O)[C@H](C)NP(=O)(Oc1ccccc1)C(F)c1ccc2ccc(C(=O)N[C@H]3CN(C(=O)c4noc5ccc(C)cc45)CC[C@H]4CC[C@@H](C(=O)N(C)CCCCCCC#Cc5cccc6c5CN(C5CCC(=O)NC5=O)C6=O)N4C3=O)cc2c1 (stereo partly drawn) [Compound 26, propyl (((7-(((5S,8S,10aR)-8-((8-(2-(2,6-dioxopiperidin-3-yl)-1-oxoisoindolin-4-yl)oct-7-yn-1-yl)(methyl)carbamoyl)-3-(5-methylbenzo[d]isoxazole-3-carbonyl)-6-oxodecahydropyrrolo[1,2-a][1,5]diazocin-5-yl)carbamoyl)naphthalen-2-yl)fluoromethyl)(phenoxy)phosphoryl)-L-alaninate]",> 3 µM
